pIC50: −log10 of the molar value.
Molecular target: T1, CDK4 (Homo sapiens, UniProt P11802)
T1 construct: endogenous in cells; host or cells: C33A
Test: CDK4 Degradation Assay, Western blotting
Assay type: cell-based
Settings: not given
Description: C33A cells were purchased from American Type Culture Collection (ATCC) and were cultured in Dulbecco's Modified Eagle Medium (DMEM) containing 10% (v/v) fetal bovine serum (FBS) and maintained at 37° C. with 5% CO2. 22RV1 cells were purchased from the ATCC and were cultured in RPMI-1640 Medium containing 10% (v/v) FBS and maintained at 37° C. with 5% CO2. HEK293T cells were obtained from the UC Berkeley Cell Culture Facility and were cultured in DMEM containing 10% (v/v) FBS and maintained at 37° C. with 5% CO2. K562 cells were obtained from the UC Berkeley Cell Culture Facility and were cultured in Iscove's Modified Dulbecco's Medium (IMDM) containing 10% (v/v) FBS and maintained at 37° C. with 5% CO2. MV-4-11 cells were obtained from the ATCC and were cultured in IMDM containing 10% (v/v) FBS and maintained at 37° C. with 5% CO2. A549 cells were obtained from the ATCC and were cultured in F-12K Medium containing 10% (v/v) FBS and maintained at 37° C. with 5% CO2. Mino cells were obtained from the ATCC and were cultured in RPMI-1640 Medium containing 10% (v/v) FBS and maintained at 37° C. with 5% CO2. LNCaP cells were obtained from the ATCC and were cultured in RPMI-1640 Medium containing 10% (v/v) FBS and maintained at 37° C. with 5% CO2. Unless otherwise specified, all cell culture materials were purchased from Gibco. It is not known whether HEK293T cells are from male or female origin.
Cells were washed twice with cold PBS, scraped, and pelleted by centrifugation (700 g, 5 min, 4° C.). Pellets were resuspended in PBS, sonicated, clarified by centrifugation (12,000 g, 10 min, 4° C.), and lysate was transferred to new low-adhesion microcentrifuge tubes. Proteome concentrations were determined using BCA assay and lysate was diluted to appropriate working concentrations.
Proteins were resolved by SDS/PAGE and transferred to nitrocellulose membranes using the Trans-Blot Turbo transfer system (Bio-Rad). Membranes were blocked with 5% BSA in Tris-buffered saline containing Tween 20 (TBS-T) solution for 30 min at RT, washed in TBS-T, and probed with primary antibody diluted in recommended diluent per manufacturer overnight at 4° C. After 3 washes with TBS-T, the membranes were incubated in the dark with IR680- or IR800-conjugated secondary antibodies at 1:10,000 dilution in 5% BSA in TBS-T at RT for 1 h. After 3 additional washes with TBST, blots were visualized using an Odyssey Li-Cor fluorescent scanner. The membranes were stripped using ReBlot Plus Strong Antibody Stripping Solution (EMD Millipore) when additional primary antibody incubations were performed. Antibodies used in this study were CDK4 (Abcam ab108357), Vinculin (Abcam ab129002), GAPDH (Cell Signaling Technology 14C10), RNF126 (Santa Cruz Biotechnology sc-376005), BRD4 (Abcam ab128874), Beta Actin (Cell Signaling Technology 13E5), PDE5 (Abcam ab259945), AR-V7 (Abcam ab273500), c-Abl (Santa Cruz Biotechnology sc-23), SMARCA2 (Abcam ab240648), LRRK2 (Abcam ab133474), BTK (Cell Signaling Technology D3H5), Androgen Receptor (Abcam ab133273).

`COc1ccc(C(=O)/C=C/C(=O)N2CCN(c3ccc(Nc4ncc5cc(C(=O)N(C)C)n(C6CCCC6)c5n4)nc3)CC2)c(F)c1` [Compound 264, (E)-7-cyclopentyl-2-((5-(4-(4-(2-fluoro-4-methoxyphenyl)-4-oxobut-2-enoyl)piperazin-1-yl)pyridin-2-yl)amino)-N,N-dimethyl-7H-pyrrolo[2,3-d]pyrimidine-6-carboxamide] and `COc1ccccc1C(=O)/C=C/C(=O)N1CCN(c2ccc(Nc3ncc4cc(C(=O)N(C)C)n(C5CCCC5)c4n3)nc2)CC1` [Compound 148, (E)-7-cyclopentyl-2-((5-(4-(4-(2-methoxyphenyl)-4-oxobut-2-enoyl)piperazin-1-yl)pyridin-2-yl)amino)-N,N-dimethyl-7H-pyrrolo[2,3-d]pyrimidine-6-carboxamide] cannot be ordered by DC50: over 10 µM for the first, over 10 µM for the second.

`CN(C)C(=O)c1cc2cnc(Nc3ccc(N4CCN(C(=O)/C=C/C(=O)c5ccc(F)cc5)CC4)cn3)nc2n1C1CCCC1` [Compound 151, (E)-7-cyclopentyl-2-((5-(4-(4-(4-fluorophenyl)-4-oxobut-2-enoyl)piperazin-1-yl)pyridin-2-yl)amino)-N,N-dimethyl-7H-pyrrolo[2,3-d]pyrimidine-6-carboxamide] and `CN(C)C(=O)c1cc2cnc(Nc3ccc(N4CCN(C(=O)/C=C/C(=O)c5ccccc5)CC4)cn3)nc2n1C1CCCC1` [Compound 258, (E)-7-cyclopentyl-N,N-dimethyl-2-((5-(4-(4-oxo-4-phenylbut-2-enoyl)piperazin-1-yl)pyridin-2-yl)amino)-7H-pyrrolo[2,3-d]pyrimidine-6-carboxamide] cannot be ordered by DC50: over 10 µM for the first, over 10 µM for the second.

`COc1ccc(C(=O)/C=C(\C)C(=O)N2CCN(c3ccc(Nc4ncc5cc(C(=O)N(C)C)n(C6CCCC6)c5n4)nc3)CC2)cc1` [Compound 160, (E)-7-cyclopentyl-2-((5-(4-(4-(4-methoxyphenyl)-2-methyl-4-oxobut-2-enoyl)piperazin-1-yl)pyridin-2-yl)amino)-N,N-dimethyl-7H-pyrrolo[2,3-d]pyrimidine-6-carboxamide] and `COc1ccc(C(=O)/C(C)=C/C(=O)N2CCN(c3ccc(Nc4ncc5cc(C(=O)N(C)C)n(C6CCCC6)c5n4)nc3)CC2)cc1` [Compound 146, (E)-7-cyclopentyl-2-((5-(4-(4-(4-methoxyphenyl)-3-methyl-4-oxobut-2-enoyl)piperazin-1-yl)pyridin-2-yl)amino)-N,N-dimethyl-7H-pyrrolo[2,3-d]pyrimidine-6-carboxamide] cannot be ordered by DC50: over 10 µM for the first, over 10 µM for the second.

`COc1ccc(C(=O)/C=C/C(=O)N[C@H]2C[C@@H](Nc3ccc(Nc4ncc5cc(C(=O)N(C)C)n(C6CCCC6)c5n4)nc3)C2)cc1` [Compound 269, 7-cyclopentyl-2-((5-(((1s,3s)-3-((E)-4-(4-methoxyphenyl)-4-oxobut-2-enamido)cyclobutyl)amino)pyridin-2-yl)amino)-N,N-dimethyl-7H-pyrrolo[2,3-d]pyrimidine-6-carboxamide] and `COc1ccc(C(=O)/C=C/C(=O)N[C@H]2C[C@H](Nc3ccc(Nc4ncc5cc(C(=O)N(C)C)n(C6CCCC6)c5n4)nc3)C2)cc1` [Compound 270, 7-cyclopentyl-2-((5-(((1r,3r)-3-((E)-4-(4-methoxyphenyl)-4-oxobut-2-enamido)cyclobutyl)amino)pyridin-2-yl)amino)-N,N-dimethyl-7H-pyrrolo[2,3-d]pyrimidine-6-carboxamide] cannot be ordered by DC50: over 10 µM for the first, over 10 µM for the second.

First: CN(C)C(=O)c1cc2cnc(Nc3ccc(N4CCN(C(=O)/C=C/C(=O)c5cccc(C(F)(F)F)c5)CC4)cn3)nc2n1C1CCCC1 [Compound 165, (E)-7-cyclopentyl-N,N-dimethyl-2-((5-(4-(4-oxo-4-(3-(trifluoromethyl)phenyl)but-2-enoyl)piperazin-1-yl)pyridin-2-yl)amino)-7H-pyrrolo[2,3-d]pyrimidine-6-carboxamide]
Second: COc1ccc(C(=O)/C=C/C(=O)N2CCN(c3ccc(Nc4ncc5cc(C(=O)N(C)C)n(C6CCCC6)c5n4)nc3)[C@H](C)C2)cc1 [Compound 271, (R,E)-7-cyclopentyl-2-((5-(4-(4-(4-methoxyphenyl)-4-oxobut-2-enoyl)-2-methylpiperazin-1-yl)pyridin-2-yl)amino)-N,N-dimethyl-7H-pyrrolo[2,3-d]pyrimidine-6-carboxamide]
The DC50 of the first is higher: over 10 µM for the first, 1 to 10 µM for the second.

In the case of `COc1ccc(C(=O)/C=C/C(=O)N2CCN(c3ccc(Nc4ncc5cc(C(=O)N(C)C)n(C6CCCC6)c5n4)nc3)C[C@@H]2C)cc1` [Compound 276, (S,E)-7-cyclopentyl-2-((5-(4-(4-(4-methoxyphenyl)-4-oxobut-2-enoyl)-3-methylpiperazin-1-yl)pyridin-2-yl)amino)-N,N-dimethyl-7H-pyrrolo[2,3-d]pyrimidine-6-carboxamide], the DC50 was 1 to 10 µM.

Molecular target: T2, Recombinant RNF126 (Homo sapiens, UniProt Q9BV68)
T2 construct: FLAG (C); host or cells: HEK293T
Test: RNF126 Binding Assay, gel-based ABPP
Settings: not given
Description: RNF126 mammalian expression plasmid with a C-terminal FLAG tag was purchased from Origene (Origene Technologies Inc., RC204986). The plasmid was transformed into NEB 5-alpha Competent E. coli (DH5) cells (NEB product no. C2987H). The following day, a single transformed colony was used to inoculate 50 ml of nutrient rich LB medium containing kanamycin (50 μg/ml) and was incubated at 37° C. overnight, with agitation (250 rpm). A Miniprep (Qiagen) kit was used to isolate the plasmid before sequence verification with appropriate primers.
HEK293T cells were grown to 30-50% confluency in DMEM supplemented with 10% FBS (Corning) and maintained at 37° C. with 5% CO2. Immediately before transfection, media was replaced with DMEM containing 5% FBS. Each plate was transfected with 24 μg of overexpression plasmid with 24 μL Lipofectamine 3000 (Invitrogen) in Opti-MEM. After 48 h cells were collected in PBS, lysed by sonication, and batch bound with anti-DYKDDDDK resin (GenScript, L00432) for 2 hours. Lysate and resin were washed with PBS and eluted with 133.33 μg/ml 3×FLAG peptide (ApexBio, A6001) in PBS. Five elutions were performed for 15 minutes each. Elutions were concentrated and the protein was stored in PBS. Concentration and purity was determined using the BCA assay and western blotting.
Recombinant RNF126 ([…]) was pre-treated with either DMSO vehicle or covalent ligand at 37° C. for 30 min in 25 μL of PBS, and subsequently treated with of IA-Rhodamine (concentrations designated in figure legends) (Setareh Biotech) at room temperature for 1 h in the dark. The reaction was stopped by addition of 4×reducing Laemmli SDS sample loading buffer (Alfa Aesar). After boiling at 95° C. for 5 min, the samples were separated on precast 4-20% Criterion TGX gels (Bio-Rad). Probe-labeled proteins were analyzed by in-gel fluorescence using a ChemiDoc MP (Bio-Rad).

T2 sequence (Q9BV68 whole entry): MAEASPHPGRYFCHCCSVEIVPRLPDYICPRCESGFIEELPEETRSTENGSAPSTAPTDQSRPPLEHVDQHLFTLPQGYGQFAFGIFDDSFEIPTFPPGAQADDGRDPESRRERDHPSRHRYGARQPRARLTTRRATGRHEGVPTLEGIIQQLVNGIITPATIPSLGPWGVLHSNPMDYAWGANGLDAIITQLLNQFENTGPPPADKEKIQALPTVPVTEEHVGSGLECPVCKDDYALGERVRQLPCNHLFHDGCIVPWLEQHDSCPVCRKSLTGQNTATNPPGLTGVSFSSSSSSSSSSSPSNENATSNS

`CC(C)(C)OC(=O)N1CCN(C(=O)/C=C/C(=O)c2ccccc2C#N)CC1` [Compound 415, tert-butyl (E)-4-(4-(2-cyanophenyl)-4-oxobut-2-enoyl)piperazine-1-carboxylate] and `Cc1ccccc1C(=O)/C=C/C(=O)N1CCN(C(=O)OC(C)(C)C)CC1` [Compound 407, tert-butyl (E)-4-(4-oxo-4-(o-tolyl)but-2-enoyl)piperazine-1-carboxylate] cannot be ordered by pIC50: over 7.00 for the first, over 7.00 for the second.

Compound `COc1ccc(C(=O)/C=C\C(=O)N2CCN(C(=O)OC(C)(C)C)CC2)cc1` [Compound 411, tert-butyl (Z)-4-(4-(4-methoxyphenyl)-4-oxobut-2-enoyl)piperazine-1-carboxylate] has a pIC50 of 4.30 to 5.00.

Same assay, conditions: range with lower bound in nM and upper bound in μM

`CC(C)(C)OC(=O)N1CCN(C(=O)/C=C/C(=O)c2ccc3c(c2)CCO3)CC1` [Compound 405, tert-butyl (E)-4-(4-(2,3-dihydrobenzofuran-5-y1)-4-oxobut-2-enoyl)piperazine-1-carboxylate] and `COc1ccc(C(=O)/C=C/C(=O)N2CCN(C(=O)OC(C)(C)C)CC2)cn1` [Compound 402, tert-butyl (E)-4-(4-(6-methoxypyridin-3-yl)-4-oxobut-2-enoyl)piperazine-1-carboxylate] fall in the same range of IC50: 100 to 1000 nM for the first, 100 to 1000 nM for the second.

`COc1ccc(C(=O)/C=C(\C#N)C(=O)N2CCN(C(=O)OC(C)(C)C)CC2)cc1` [Compound 153, tert-butyl (E)-4-(2-cyano-4-(4-methoxyphenyl)-4-oxobut-2-enoyl)piperazine-1-carboxylate] and `O=C(/C=C/C(=O)N1CCNCC1)c1ccccc1` [Compound 152, (E)-1-phenyl-4-(piperazin-1-yl)but-2-ene-1,4-dione] fall in the same range of IC50: 100 to 1000 nM for the first, 100 to 1000 nM for the second.

Source: patent publication US20260200939A1, “MOLECULAR GLUE DEGRADER COMPOUNDS AND USES THEREOF” (Novartis AG, priority 2022, published 2026)
